# Patent US6455077B2, “Herbal composition and method of manufacturing such composition for the management of gynecological disorders” (Dabur Research Foundation, priority 2001, dated 2002)
# Test system: rat isolated uterus
# Assay: Uterotonic (oxytocic) activity on isolated uterus of stilbestrol-primed rats, compared with 5-HT
# Parameters: species or system Wistar female albino rats
# Details: isolated uterus horn of stilbestrol dipropionate (1 mg/kg i.p., 24 h) pre-treated rats, de Jalon's solution
# Method: The above two samples were assayed for their effect on Uterotonic activity using Wistar female albino rats.
# The uterotonic property of the test extracts were assessed in two test areas.
# 1. The oxytocic activity of the Sample A and Sample B is compared with uterine stimulant 5-HT.
# Female rats weighing between 150-200 g were pre-treated with stilbestrol dipropionate, 1 mg/kg intra peritoneally 24 h prior to the experiment. The rats were killed by a swift blow on the head and exsanguinated. The uterus of rat dissected and the two horns divided. One horn is suspended in the bath. The rhythmic contractions are abolished by using de jalon's solution. When the spontaneous contractions became regular, the responses to Extracts of Sample A and Sample B and other agonists were recorded using a Frontal lever, isometrically connected to a polygraph.
structure (smiles),measurement,value
"CN1CC(=O)N=C1N.NCCc1c[nH]c2ccc(O)cc12.O=S(=O)(O)O [Formulation 5-HT, 5-hydroxytryptamine creatinine sulphate]",In-vitro treatment (uterine contraction),1. The control drug 5-HT induced a dose related increase in the height of contraction of rat isolated uterus. and Uterine contraction
